Columns and labels:
Assay type in all cases: cell-based
human TLR7 = target: T1, human TLR7 (Homo sapiens, UniProt Q9NYK1); assay: TLR7/8/9 Inhibition Reporter Assays (TLR7); settings: HEK-Blue cells overexpressing human TLR7, SEAP reporter, stimulated with TLR7 ligand gardiquimod
T1 construct: host or cells: HEK-Blue cells (HEK293-derived reporter line)
T1 sequence (Q9NYK1 27-1049): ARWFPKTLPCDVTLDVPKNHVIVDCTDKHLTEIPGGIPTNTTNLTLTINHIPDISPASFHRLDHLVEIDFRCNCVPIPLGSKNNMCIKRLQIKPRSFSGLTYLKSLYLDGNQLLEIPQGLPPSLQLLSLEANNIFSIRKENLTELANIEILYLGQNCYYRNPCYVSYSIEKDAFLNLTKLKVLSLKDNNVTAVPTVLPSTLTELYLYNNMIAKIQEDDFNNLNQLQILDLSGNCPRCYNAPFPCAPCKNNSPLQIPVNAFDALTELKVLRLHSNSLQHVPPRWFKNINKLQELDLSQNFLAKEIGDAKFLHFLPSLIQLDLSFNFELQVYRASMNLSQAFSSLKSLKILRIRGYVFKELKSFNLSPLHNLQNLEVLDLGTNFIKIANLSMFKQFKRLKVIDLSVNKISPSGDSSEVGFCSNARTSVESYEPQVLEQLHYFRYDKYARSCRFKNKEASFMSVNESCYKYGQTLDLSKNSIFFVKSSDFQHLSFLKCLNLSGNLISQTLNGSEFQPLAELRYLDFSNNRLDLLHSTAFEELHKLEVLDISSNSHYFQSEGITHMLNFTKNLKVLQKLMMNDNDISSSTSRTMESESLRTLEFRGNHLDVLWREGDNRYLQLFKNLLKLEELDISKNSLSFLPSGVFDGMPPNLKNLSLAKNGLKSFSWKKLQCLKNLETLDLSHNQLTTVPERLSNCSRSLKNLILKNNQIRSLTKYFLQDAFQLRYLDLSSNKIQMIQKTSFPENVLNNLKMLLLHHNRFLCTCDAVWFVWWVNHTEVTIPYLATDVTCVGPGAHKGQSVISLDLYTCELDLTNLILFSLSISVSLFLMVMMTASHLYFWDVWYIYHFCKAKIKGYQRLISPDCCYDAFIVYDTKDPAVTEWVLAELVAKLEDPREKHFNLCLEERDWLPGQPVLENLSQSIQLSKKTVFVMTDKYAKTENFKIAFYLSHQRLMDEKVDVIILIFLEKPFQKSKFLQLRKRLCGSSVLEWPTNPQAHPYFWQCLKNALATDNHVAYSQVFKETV
Procedure, shortened: (§1)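 HEK-Blue cells overexpressing human TLR7, TLR8 or TLR9 with NF-κB/AP-1-driven SEAP reporter, pre-treated 60 min with compound ([…]). Stimulated with […] (TLR7), […] (TLR8) or ODN2006 200 nM (TLR9), then 22 h at 37° C; SEAP measured, % inhibition relative to agonist-plus-DMSO and known-inhibitor wells.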

human TLR8 = target: T2, human TLR8 (Homo sapiens, UniProt Q9NR97); assay: TLR7/8/9 Inhibition Reporter Assays (TLR8); settings: HEK-Blue cells overexpressing human TLR8, SEAP reporter, stimulated with TLR8 ligand R848
T2 construct: host or cells: HEK-Blue cells (HEK293-derived reporter line)
T2 sequence (Q9NR97 27-1041): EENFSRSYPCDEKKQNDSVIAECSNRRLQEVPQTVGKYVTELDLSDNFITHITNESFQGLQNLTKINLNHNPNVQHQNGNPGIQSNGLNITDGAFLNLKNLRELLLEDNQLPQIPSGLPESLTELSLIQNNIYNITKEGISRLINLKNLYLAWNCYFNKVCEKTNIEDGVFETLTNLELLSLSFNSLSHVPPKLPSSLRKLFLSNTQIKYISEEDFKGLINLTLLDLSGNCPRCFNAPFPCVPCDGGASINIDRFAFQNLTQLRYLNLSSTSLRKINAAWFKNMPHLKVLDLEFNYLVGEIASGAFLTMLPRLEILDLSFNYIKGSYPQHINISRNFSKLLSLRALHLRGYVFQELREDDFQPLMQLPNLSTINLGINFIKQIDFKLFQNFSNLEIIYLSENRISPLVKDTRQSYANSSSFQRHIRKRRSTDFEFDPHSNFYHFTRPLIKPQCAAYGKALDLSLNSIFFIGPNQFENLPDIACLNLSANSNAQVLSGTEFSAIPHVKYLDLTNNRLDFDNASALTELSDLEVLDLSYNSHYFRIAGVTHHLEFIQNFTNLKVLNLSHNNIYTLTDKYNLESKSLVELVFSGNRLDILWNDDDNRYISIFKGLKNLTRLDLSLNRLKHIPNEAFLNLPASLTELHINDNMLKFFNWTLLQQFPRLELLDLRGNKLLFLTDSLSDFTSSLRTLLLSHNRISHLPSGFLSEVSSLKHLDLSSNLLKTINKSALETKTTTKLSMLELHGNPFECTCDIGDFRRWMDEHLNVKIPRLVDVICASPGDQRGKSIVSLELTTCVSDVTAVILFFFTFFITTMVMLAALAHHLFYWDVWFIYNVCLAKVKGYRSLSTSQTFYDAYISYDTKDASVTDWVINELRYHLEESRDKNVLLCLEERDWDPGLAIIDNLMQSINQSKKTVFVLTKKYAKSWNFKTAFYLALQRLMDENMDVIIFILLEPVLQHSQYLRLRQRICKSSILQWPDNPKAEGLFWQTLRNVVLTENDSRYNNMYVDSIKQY
Procedure, shortened: as §1

human TLR9 = target: T3, human TLR9 (Homo sapiens, UniProt Q9NR96); assay: TLR7/8/9 Inhibition Reporter Assays (TLR9); settings: HEK-Blue cells overexpressing human TLR9, SEAP reporter, stimulated with TLR9 ligand ODN2006
T3 construct: host or cells: HEK-Blue cells (HEK293-derived reporter line)
T3 sequence (Q9NR96 26-1032): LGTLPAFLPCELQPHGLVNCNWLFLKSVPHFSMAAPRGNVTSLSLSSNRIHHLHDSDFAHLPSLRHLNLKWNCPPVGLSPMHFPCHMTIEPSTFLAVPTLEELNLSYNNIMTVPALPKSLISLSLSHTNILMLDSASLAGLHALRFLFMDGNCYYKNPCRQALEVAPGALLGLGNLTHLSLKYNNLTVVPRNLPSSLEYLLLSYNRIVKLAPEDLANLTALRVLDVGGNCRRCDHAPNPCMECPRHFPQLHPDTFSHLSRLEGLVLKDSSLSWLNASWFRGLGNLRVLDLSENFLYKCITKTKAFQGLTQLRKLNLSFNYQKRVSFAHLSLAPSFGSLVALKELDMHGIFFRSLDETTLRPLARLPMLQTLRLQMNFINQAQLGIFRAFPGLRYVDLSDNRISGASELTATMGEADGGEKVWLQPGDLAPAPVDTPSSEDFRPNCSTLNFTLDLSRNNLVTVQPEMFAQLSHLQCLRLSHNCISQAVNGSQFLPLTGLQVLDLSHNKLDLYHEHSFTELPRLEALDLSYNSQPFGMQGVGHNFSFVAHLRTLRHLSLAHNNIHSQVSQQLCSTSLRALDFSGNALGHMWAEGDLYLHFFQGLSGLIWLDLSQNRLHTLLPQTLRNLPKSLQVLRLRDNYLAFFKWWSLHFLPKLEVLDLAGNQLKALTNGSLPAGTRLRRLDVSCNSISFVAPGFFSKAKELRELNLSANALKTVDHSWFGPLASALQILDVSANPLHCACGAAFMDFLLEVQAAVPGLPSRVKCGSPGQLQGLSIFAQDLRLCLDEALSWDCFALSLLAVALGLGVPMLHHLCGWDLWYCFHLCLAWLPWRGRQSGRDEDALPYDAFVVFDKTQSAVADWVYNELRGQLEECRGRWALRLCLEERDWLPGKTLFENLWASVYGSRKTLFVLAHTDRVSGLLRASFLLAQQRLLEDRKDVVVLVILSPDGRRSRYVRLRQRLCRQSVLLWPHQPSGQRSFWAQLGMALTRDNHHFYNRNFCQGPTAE
Procedure, shortened: as §1

An IC50 (human TLR7) of 13 µM, an IC50 (human TLR8) of over 50 µM and an IC50 (human TLR9) of 1.1 µM were found for `Cn1c(-c2ccc(S(C)(=O)=O)cc2)nc2c(C(F)(F)F)nc(C3=CCN(C4CCN(CC(C)(C)O)CC4)CC3)cc21` [Example 37, 2-methyl-1-(4-(4-(1-methyl-2-(4-(methylsulfonyl)phenyl)-4-(trifluoromethyl)-1H-imidazo[4,5-c]pyridin-6-yl)-3,6-dihydropyridin-1(2H)-yl)piperidin-1-yl)propan-2-ol] in this work.

An IC50 (human TLR7) of 7.7 µM, an IC50 (human TLR8) of over 50 µM and an IC50 (human TLR9) of 0.13 µM were found for `Cc1nc(C2CCN(C3CCN(C(C)C)CC3)CC2)cc2c1nc(-c1ccc(S(C)(=O)=O)cc1)n2C` [Example 38, 6-(1′-isopropyl-[1,4′-bipiperidin]-4-yl)-1,4-dimethyl-2-(4-(methylsulfonyl)phenyl)-1H-imidazo[4,5-c]pyridine] in this work.

An IC50 (human TLR7) of 0.92 µM, an IC50 (human TLR8) of over 50 µM and an IC50 (human TLR9) of 0.036 µM were found for `Cc1nc(C2CCN(C3CCN(CC(C)C)CC3)CC2)cc2c1nc(-c1ccc(S(C)(=O)=O)cc1)n2C` [Example 39, 6-(1′-isobutyl-[1,4′-bipiperidin]-4-yl)-1,4-dimethyl-2-(4-(methylsulfonyl)phenyl)-1H-imidazo[4,5-c]pyridine] in this work.

An IC50 (human TLR7) of 9.1 µM, an IC50 (human TLR8) of over 50 µM and an IC50 (human TLR9) of 0.12 µM were found for `Cc1nc(C2CCN(C3CCN(CC(C)(C)O)CC3)CC2)cc2c1nc(-c1ccc(S(C)(=O)=O)cc1)n2C` [Example 40, 1-(4-(1,4-dimethyl-2-(4-(methylsulfonyl)phenyl)-1H-imidazo[4,5-c]pyridin-6-yl)-[1,4′-bipiperidin]-1′-yl)-2-methylpropan-2-ol] in this work.

An IC50 (human TLR7) of 5.8 µM, an IC50 (human TLR8) of over 50 µM and an IC50 (human TLR9) of 0.11 µM were found for `Cc1nc(-c2ccc(N3CCC(N4CCCC4)CC3)cc2)cc2c1nc(-c1ccc(S(C)(=O)=O)cc1)n2C` [Example 41, 1,4-dimethyl-2-(4-(methylsulfonyl)phenyl)-6-(4-(4-(pyrrolidin-1-yl)piperidin-1-yl)phenyl)-1H-imidazo[4,5-c]pyridine] in this work.

An IC50 (human TLR7) of 2.4 µM, an IC50 (human TLR8) of over 50 µM and an IC50 (human TLR9) of 0.44 µM were found for `Cc1nc(-c2ccc(N3CCC(N4CCCC4)CC3)c(F)c2)cc2c1nc(-c1ccc(S(C)(=O)=O)cc1)n2C` [Example 42, 6-(3-fluoro-4-(4-(pyrrolidin-1-yl)piperidin-1-yl)phenyl)-1,4-dimethyl-2-(4-(methylsulfonyl)phenyl)-1H-imidazo[4,5-c]pyridine] in this work.

An IC50 (human TLR7) of 3.9 µM, an IC50 (human TLR8) of 2.3 µM and an IC50 (human TLR9) of 0.29 µM were found for `Cc1nc(-c2ccc(N3CCC(N4CCCC4)CC3)cc2F)cc2c1nc(-c1ccc(S(C)(=O)=O)cc1)n2C` [Example 43, 6-(2-fluoro-4-(4-(pyrrolidin-1-yl)piperidin-1-yl)phenyl)-1,4-dimethyl-2-(4-(methylsulfonyl)phenyl)-1H-imidazo[4,5-c]pyridine] in this work.

An IC50 (human TLR7) of 7.8 µM, an IC50 (human TLR8) of over 50 µM and an IC50 (human TLR9) of 2.5 µM were found for `Cc1nc(-c2ccc(N3CCC(N4CCCC4)CC3)cc2)c(F)c2c1nc(-c1ccc(S(C)(=O)=O)cc1)n2C` [Example 44, 7-fluoro-1,4-dimethyl-2-(4-(methylsulfonyl)phenyl)-6-(4-(4-(pyrrolidin-1-yl)piperidin-1-yl)phenyl)-1H-imidazo[4,5-c]pyridine] in this work.

An IC50 (human TLR7) of 1 µM, an IC50 (human TLR8) of 4.9 µM and an IC50 (human TLR9) of 0.072 µM were found for `Cc1nc(-c2ccc(CN3CCC(N(C)C)CC3)cc2)cc2c1nc(-c1ccc(S(C)(=O)=O)cc1)n2C` [Example 45, 1-(4-(1,4-dimethyl-2-(4-(methylsulfonyl)phenyl)-1H-imidazo[4,5-c]pyridin-6-yl)benzyl)-N,N-dimethylpiperidin-4-amine] in this work.

An IC50 (human TLR7) of 1 µM, an IC50 (human TLR8) of 5.5 µM and an IC50 (human TLR9) of 0.058 µM were found for `Cc1nc(-c2ccc(CN3CCC(N4CCCC4)CC3)cc2)cc2c1nc(-c1ccc(S(C)(=O)=O)cc1)n2C` [Example 46, 1,4-dimethyl-2-(4-(methylsulfonyl)phenyl)-6-(4-((4-(pyrrolidin-1-yl)piperidin-1-yl)methyl)phenyl)-1H-imidazo[4,5-c]pyridine] in this work.

An IC50 (human TLR7) of 1.7 µM, an IC50 (human TLR8) of 5.5 µM and an IC50 (human TLR9) of 0.23 µM were found for `Cc1nc(-c2ccc(CN3CCC(N(C)C4CC4)CC3)cc2)cc2c1nc(-c1ccc(S(C)(=O)=O)cc1)n2C` [Example 47, N-cyclopropyl-1-(4-(1,4-dimethyl-2-(4-(methylsulfonyl)phenyl)-1H-imidazo[4,5-c]pyridin-6-yl)benzyl)-N-methylpiperidin-4-amine] in this work.

An IC50 (human TLR7) of 3.8 µM, an IC50 (human TLR8) of 1.7 µM and an IC50 (human TLR9) of 0.27 µM were found for `Cc1nc(-c2ccc(CN3CCC(N4CCOCC4)CC3)cc2)cc2c1nc(-c1ccc(S(C)(=O)=O)cc1)n2C1CC1` [Example 48, 4-(1-(4-(1-cyclopropyl-4-methyl-2-(4-(methylsulfonyl)phenyl)-1H-imidazo[4,5-c]pyridin-6-yl)benzyl)piperidin-4-yl) morpholine] in this work.
